# Results: patent US20130295173A1, “COMPOSITIONS OF STATINS AND OMEGA-3 FATTY ACIDS” (OMTHERA PHARMACEUTICALS, INC., priority 2012, published 2013)
# Tests used:
# [1] = Comparison of solubility of statins in PUFA free acid solvent system and Lovaza ethyl ester solvent system, HPLC assay of supernatant
# Method: For this study, ten vials were prepared such that 5 vials contained 2 mL of Lovaza oil and 5 vials contained 2 mL of PUFA free acid solvent system. About 20 mg of each statin were added to one Lovaza oil vial and to one PUFA free acid solvent system vial. Vials containing the samples were blanketed with nitrogen, then sealed. The vials were then sonicated for 1 hour or until contents appeared clear. After sonication, vials which remained clear received additional 20 mg aliquots of their respective statin and were again blanketed with nitrogen. […] The samples were centrifuged and the supernatant was assayed for the respective statin by HPLC.
# [2] = Stability testing of statins dissolved in PUFA free acid solvent system; type: physicochemical; conditions: 25° C., 60% RH; for Statin in Oil: PUFA free acid solvent system; for Statin in Oil, Percent: share of total statin
# Method: The compositions were then mixed until full dissolution was observed, using a magnetic stir bar and sonication for 30-60 second intervals, taking care to maintain a nitrogen headspace over the solution throughout processing. […] Vials were covered with foil to protect from light and stored at 25° C., 60% RH. One vial of each of the three compositions was retrieved at each timepoint for testing. Procedures as listed in the USP Monograph for Omega-3-Acid Ethyl Ester Capsules were followed for measuring quantities of acid value, peroxide value, and absorbance for fats and fixed oils.
# [3] = Solubility of statins in various pH buffers
# [4] = Initial solubility of statins in PUFA free acid solvent system (batch #37225); type: physicochemical
structure (smiles),measurement,setting,value
"O=C([O-])C[C@H](O)C[C@H](O)/C=C/c1c(C2CC2)nc2ccccc2c1-c1ccc(F)cc1.O=C([O-])C[C@H](O)C[C@H](O)/C=C/c1c(C2CC2)nc2ccccc2c1-c1ccc(F)cc1.[Ca+2] [Pitavastatin Calcium, pitavastatin calcium]",Solubility in Lovaza (ethyl ester) Solvent System,[1],0.615 mg/g
same,Solubility in PUFA Free Acid Solvent System,[1],12.771 mg/g
"CC[C@H](C)C(=O)O[C@H]1C[C@H](O)C=C2C=C[C@H](C)[C@H](CC[C@@H](O)C[C@@H](O)CC(=O)O)[C@H]21 [Pravastatin Sodium, pravastatin sodium]",Solubility in Lovaza (ethyl ester) Solvent System,[1],0.000 mg/g
same,Solubility in PUFA Free Acid Solvent System,[1],42.357 mg/g
same,Appearance of vial after sonication,"[1]; PUFA free acid solvent, 2 mL, after the addition of about 313 mg",still remained clear
"CC(C)c1c(C(=O)Nc2ccccc2)c(-c2ccccc2)c(-c2ccc(F)cc2)n1CC[C@@H](O)C[C@@H](O)CC(=O)[O-].CC(C)c1c(C(=O)Nc2ccccc2)c(-c2ccccc2)c(-c2ccc(F)cc2)n1CC[C@@H](O)C[C@@H](O)CC(=O)[O-].[Ca+2] [Atorvastatin Calcium, atorvastatin calcium]",Statin in Oil,[2]; t = 0,8.738 mg/g
same,"Statin in Oil, Percent",[2]; t = 0,100%
same,Statin in Oil,[2]; t = 1 week,8.275 mg/g
same,"Statin in Oil, Percent",[2]; t = 1 week,100%
same,Statin in Oil,[2]; t = 2 week,7.839 mg/g
same,"Statin in Oil, Percent",[2]; t = 2 week,100%
"CC(C)c1nc(N(C)S(C)(=O)=O)nc(-c2ccc(F)cc2)c1/C=C/[C@@H](O)C[C@@H](O)CC(=O)[O-].CC(C)c1nc(N(C)S(C)(=O)=O)nc(-c2ccc(F)cc2)c1/C=C/[C@@H](O)C[C@@H](O)CC(=O)[O-].[Ca+2] [Rosuvastatin Calcium, rosuvastatin calcium]",Solubility in Lovaza (ethyl ester) Solvent System,[1],0.001 mg/g
same,Solubility in PUFA Free Acid Solvent System,[1],12.700 mg/g
same,Statin in Oil,[2]; t = 0,6.481 mg/g
same,"Statin in Oil, Percent",[2]; t = 0,100%
same,Statin in Oil,[2]; t = 1 week,6.416 mg/g
same,"Statin in Oil, Percent",[2]; t = 1 week,100%
same,Statin in Oil,[2]; t = 2 week,6.505 mg/g
same,"Statin in Oil, Percent",[2]; t = 2 week,100%
same,Solubility,"[3]; 0.1N HCl (pH 1.2), T = 0",0.223
same,Solubility,"[3]; 0.1N HCl (pH 1.2), T = 1 Week",0.104
same,Solubility,"[3]; 0.1N NaOH, T = 0",8.058
same,Solubility,"[3]; 0.1N NaOH, T = 1 Week",0.018
same,Solubility,"[3]; Water, T = 0 (after sitting overnight)",7.08
same,Solubility,"[3]; Water, T = 1 Week",8.822
same,pH of maximal solubility,[3]; aqueous pH buffers,~7.0
same,Aqueous solubility (in words),"[3]; overall across aqueous solutions, rosuvastatin at time zero",significant aqueous solubility
same,Solubility,"[3]; pH 2.2 acid phthalate buffer, T = 0",0.773
same,Solubility,"[3]; pH 2.2 acid phthalate buffer, T = 1 Week",9.343
same,Solubility,"[3]; pH 4.0 acid phthalate buffer, T = 0",1.901
same,Solubility,"[3]; pH 4.0 acid phthalate buffer, T = 1 Week",0.002
same,Solubility,"[3]; pH 5.0 neutralized phthalate buffer, T = 0",4.188
same,Solubility,"[3]; pH 5.0 neutralized phthalate buffer, T = 1 Week",4.790
same,Solubility,"[3]; pH 7.0 phosphate buffer, T = 0",7.963
same,Solubility,"[3]; pH 7.0 phosphate buffer, T = 1 Week",10.654
same,Solubility,"[3]; pH 9.0 alkaline borate buffer, T = 0",4.571
same,Solubility,"[3]; pH 9.0 alkaline borate buffer, T = 1 Week",4.712
same,"Initial solubility in PUFA free acid solvent system, Concentration",[4],12.70 mg/mL
